Assay results published in the NIST ThermoML archive (doi:10.1021/acs.jced.9b00507).
± gives the expanded uncertainty stated by the source.

Assay: xn = mol fraction of the nth substance listed
Settings: 100 kPa, Liquid; for viscosity: Concentric cylinders viscometry; for mass density: Vibrating tube method

CCCCCCn1cc[n+](C)c1.O=[N+]([O-])[O-] [1-hexyl-3-methylimidazolium nitrate] + CCCCCCCO
Settings	mass density [kg/m3]	viscosity [mPa·s]
293.15 K, x1 = 0.0812	857.5 ± 1.3	12.74 ± 1.1
293.15 K, x1 = 0.1608	889.6 ± 1.3	22.91 ± 1.9
293.15 K, x1 = 0.2395	919 ± 1.2	36.98 ± 3
293.15 K, x1 = 0.3493	956.7 ± 1.2	67.76 ± 5.5
293.15 K, x1 = 0.4392	985 ± 1.2	100.46 ± 8.2
293.15 K, x1 = 0.5749	1023.9 ± 1.2	177.42 ± 15
293.15 K, x1 = 0.6491	1043.4 ± 1.2	234.42 ± 19
293.15 K, x1 = 0.7398	1065.6 ± 1.3	338.84 ± 29
293.15 K, x1 = 0.8496	1090.2 ± 1.3	508.16 ± 44
293.15 K, x1 = 0.9381	1108.4 ± 1.4	677.64 ± 59
293.15 K, x1 = 1	1120.3 ± 1.4	804.17 ± 70
298.15 K, x1 = 0.0812	853.9 ± 1.3	10.09 ± 0.82
298.15 K, x1 = 0.1608	885.9 ± 1.3	16.67 ± 1.4
298.15 K, x1 = 0.2395	915.3 ± 1.2	25.12 ± 2
298.15 K, x1 = 0.3493	953.1 ± 1.2	41.88 ± 3.4
298.15 K, x1 = 0.4392	981.5 ± 1.2	61.38 ± 5
298.15 K, x1 = 0.5749	1020.5 ± 1.2	109.9 ± 8.9
298.15 K, x1 = 0.6491	1040 ± 1.2	150.66 ± 12
298.15 K, x1 = 0.7398	1062.2 ± 1.3	219.28 ± 18
298.15 K, x1 = 0.8496	1087.1 ± 1.3	334.2 ± 28
298.15 K, x1 = 0.9381	1105.4 ± 1.4	460.97 ± 39
298.15 K, x1 = 1	1117.5 ± 1.4	545.25 ± 47
303.15 K, x1 = 0.0812	850.3 ± 1.3	7.94 ± 0.64
303.15 K, x1 = 0.1608	882.2 ± 1.3	12.19 ± 0.99
303.15 K, x1 = 0.2395	911.5 ± 1.2	17.82 ± 1.4
303.15 K, x1 = 0.3493	949.3 ± 1.2	28.31 ± 2.3
303.15 K, x1 = 0.4392	977.7 ± 1.2	40.09 ± 3.2
303.15 K, x1 = 0.5749	1016.8 ± 1.2	69.18 ± 5.6
303.15 K, x1 = 0.6491	1036.3 ± 1.2	94.19 ± 7.6
303.15 K, x1 = 0.7398	1058.6 ± 1.2	136.14 ± 11
303.15 K, x1 = 0.8496	1083.5 ± 1.3	213.3 ± 18
303.15 K, x1 = 0.9381	1102.1 ± 1.4	303.7 ± 25
303.15 K, x1 = 1	1114.3 ± 1.4	369.14 ± 31
308.15 K, x1 = 0.0812	846.5 ± 1.3	6.64 ± 0.54
308.15 K, x1 = 0.1608	878.3 ± 1.3	9.57 ± 0.77
308.15 K, x1 = 0.2395	907.7 ± 1.2	13.27 ± 1.1
308.15 K, x1 = 0.3493	945.5 ± 1.2	19.95 ± 1.6
308.15 K, x1 = 0.4392	973.9 ± 1.2	27.99 ± 2.3
308.15 K, x1 = 0.5749	1013 ± 1.2	46.34 ± 3.7
308.15 K, x1 = 0.6491	1032.6 ± 1.2	61.8 ± 5
308.15 K, x1 = 0.7398	1054.9 ± 1.2	91.83 ± 7.5
308.15 K, x1 = 0.8496	1080 ± 1.3	147.57 ± 12
308.15 K, x1 = 0.9381	1098.7 ± 1.4	206.54 ± 17
308.15 K, x1 = 1	1111.1 ± 1.4	257.59 ± 21
313.15 K, x1 = 0.0812	842.8 ± 1.3	5.43 ± 0.44
313.15 K, x1 = 0.1608	874.6 ± 1.3	7.36 ± 0.59
313.15 K, x1 = 0.2395	903.9 ± 1.2	9.99 ± 0.8
313.15 K, x1 = 0.3493	941.7 ± 1.2	14.27 ± 1.1
313.15 K, x1 = 0.4392	970.1 ± 1.2	19.02 ± 1.5
313.15 K, x1 = 0.5749	1009.3 ± 1.2	31.62 ± 2.6
313.15 K, x1 = 0.6491	1028.9 ± 1.2	42.17 ± 3.4
313.15 K, x1 = 0.7398	1051.3 ± 1.2	62.32 ± 5
313.15 K, x1 = 0.8496	1076.5 ± 1.3	101.4 ± 8.3
313.15 K, x1 = 0.9381	1095.3 ± 1.4	142.89 ± 12
313.15 K, x1 = 1	1107.8 ± 1.4	185.67 ± 15
318.15 K, x1 = 0.0812	839.1 ± 1.3	4.59 ± 0.37
318.15 K, x1 = 0.1608	870.8 ± 1.3	6.17 ± 0.5
318.15 K, x1 = 0.2395	900.2 ± 1.2	7.85 ± 0.63
318.15 K, x1 = 0.3493	937.9 ± 1.2	10.99 ± 0.88
318.15 K, x1 = 0.4392	966.4 ± 1.2	14.45 ± 1.2
318.15 K, x1 = 0.5749	1005.6 ± 1.2	22.7 ± 1.8
318.15 K, x1 = 0.6491	1025.4 ± 1.2	30.06 ± 2.4
318.15 K, x1 = 0.7398	1047.9 ± 1.2	43.55 ± 3.5
318.15 K, x1 = 0.8496	1073.1 ± 1.3	71.58 ± 5.8
318.15 K, x1 = 0.9381	1092.1 ± 1.4	106.41 ± 8.7
318.15 K, x1 = 1	1104.7 ± 1.4	140.18 ± 11
323.15 K, x1 = 0.0812	835.3 ± 1.3	3.84 ± 0.31
323.15 K, x1 = 0.1608	867 ± 1.3	5.01 ± 0.4
323.15 K, x1 = 0.2395	896.4 ± 1.2	6.43 ± 0.52
323.15 K, x1 = 0.3493	934.2 ± 1.2	8.89 ± 0.72
323.15 K, x1 = 0.4392	962.6 ± 1.2	11.59 ± 0.93
323.15 K, x1 = 0.5749	1001.9 ± 1.2	17.99 ± 1.4
323.15 K, x1 = 0.6491	1021.8 ± 1.2	23.44 ± 1.9
323.15 K, x1 = 0.7398	1044.4 ± 1.2	34.2 ± 2.8
323.15 K, x1 = 0.8496	1069.8 ± 1.3	54.87 ± 4.4
323.15 K, x1 = 0.9381	1088.9 ± 1.4	82.79 ± 6.7
323.15 K, x1 = 1	1101.6 ± 1.4	110.94 ± 9
